According to US7279470B2 (priority 2001, dated 2007):

Legend:
[1] = biological target: T1, Hormone-sensitive lipase (HSL) (Homo sapiens, UniProt Q05469); type: biochemical; details: 10 μM sample concentration; percent activity relative to a non-inhibited sample (no compound); 30 min preincubation 25° C., 120 min at 37° C.
T1 sequence (Q05469 1-1076): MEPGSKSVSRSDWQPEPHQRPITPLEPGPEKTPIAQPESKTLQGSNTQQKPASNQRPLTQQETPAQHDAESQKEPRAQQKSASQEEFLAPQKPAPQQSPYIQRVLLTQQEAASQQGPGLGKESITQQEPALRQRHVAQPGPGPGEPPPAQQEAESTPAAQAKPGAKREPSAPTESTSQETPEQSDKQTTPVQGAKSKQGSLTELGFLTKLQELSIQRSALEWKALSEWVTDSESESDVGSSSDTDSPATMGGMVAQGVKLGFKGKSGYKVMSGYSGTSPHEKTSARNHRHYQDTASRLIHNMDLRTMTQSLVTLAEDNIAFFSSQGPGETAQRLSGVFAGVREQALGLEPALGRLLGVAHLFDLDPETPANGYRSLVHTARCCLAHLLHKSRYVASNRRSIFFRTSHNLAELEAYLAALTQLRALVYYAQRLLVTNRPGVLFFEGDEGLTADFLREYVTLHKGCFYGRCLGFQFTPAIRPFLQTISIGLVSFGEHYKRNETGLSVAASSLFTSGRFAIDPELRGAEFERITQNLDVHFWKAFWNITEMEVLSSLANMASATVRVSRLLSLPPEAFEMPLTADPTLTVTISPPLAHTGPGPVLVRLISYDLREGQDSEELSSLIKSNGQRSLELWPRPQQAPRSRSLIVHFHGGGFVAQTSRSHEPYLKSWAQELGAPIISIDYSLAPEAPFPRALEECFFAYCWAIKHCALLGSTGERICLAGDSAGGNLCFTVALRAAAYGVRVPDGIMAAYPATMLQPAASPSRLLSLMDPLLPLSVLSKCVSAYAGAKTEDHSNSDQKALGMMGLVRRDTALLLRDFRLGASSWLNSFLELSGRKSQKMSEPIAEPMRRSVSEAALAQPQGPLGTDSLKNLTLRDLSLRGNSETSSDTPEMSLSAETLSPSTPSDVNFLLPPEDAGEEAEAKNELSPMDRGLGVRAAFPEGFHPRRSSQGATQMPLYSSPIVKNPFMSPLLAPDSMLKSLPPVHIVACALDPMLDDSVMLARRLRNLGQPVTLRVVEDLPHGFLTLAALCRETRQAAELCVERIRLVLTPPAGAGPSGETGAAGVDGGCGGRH
Procedure: Materials. The Hormone-sensitive lipase was provided by Dr. Cecilia Holm, from Lund University Sweden or produced and purified by Novo Nordisk (NN) using the reagents and protocols used by Dr. Holm. […] All other reagents are of commercial grade and obtained from various commercial sources.
BSA is added as product receptor. The transfer of the fluorochrome from the lipid phase to the water (BSA) phase changes the fluorescent properties of the fluorochrome. The changes can be monitored on a fluorimeter with an excitation wavelength of 450 nm and an emission wavelength of 545 nm.
Compound and HSL (20 μL compound, 10 μL enzyme and 70 μL PED-BSA buffer) is preincubated for 30 min at 25° C. before addition of substrate (100 μL). Amount of formed product is measured after 120 min incubation at 37° C.

[2] = biological target: T1, Hormone-sensitive lipase (HSL); type: biochemical; details: 10 μM concentration; percent activity relative to an un-inhibited sample (no compound); 3H-Triolein substrate, 25° C.
Excerpt: Materials. The Hormone-sensitive lipase was provided by Dr. Cecilia Holm, from Lund University Sweden or produced and purified by Novo Nordisk (NN) using the reagents and protocols used by Dr. Holm. The substrates used are: ^3H-labeled triolein (TO) from Amersham, Buckinghamshire, U.K. cat No. TRA191; 5-20 Ci/mmol dissolved in toluene, triolein (Sigma, Cat. No. T-1740), fluorochrome-labeled triacylglyceride (cis-octadec-9-enoic acid 2-[12-(7-nitrobenzo[12,5]oxadiazol-4-ylamino)dodecanoyloxy]-1-cis-octadec-9-enoyloxymethyl-ethyl ester) prepared by Novo Nordisk (NN) by conventional methods, and 1,3-(di[^3H]-stearin), 2-(PEG-Biotin)glycerol prepared in collaboration with Amersham Pharmacia Biotech, UK and described in WO 01/073442. Phosphatidyl choline (PC) and phosphatidyl inositol (PI) are from Sigma (St Luis MO cat. Nos. P-3556 and P-5954 respectively). All other reagents are of commercial grade and obtained from various commercial sources.
3180.2: Assay for determination of percent inhibition by compound at 10 μM concentration. A lipid emulsion with ^3H-Triolein and phospholipid is used as substrate with a standard cencentration of highly purified HSL. BSA is added as product receptor. The substrate is prepared as follows: […]

O=C(Oc1ccc(Oc2ccc3c(C(F)(F)F)cc(C(F)(F)F)nc3n2)cc1)N1CCOCC1 [Example 90, Morpholine-4-carboxylic acid 4-(5,7-bis-trifluoromethyl-[1,8]naphthypyridin-2-yloxy)-phenyl ester]
Test 3190.1 HSL_FL % ACTIVITY All [1]: 24%

CN(C(=O)Oc1ccc(OC(F)(F)C(F)(F)F)cc1)c1ccccc1 [Example 20]
Test 3190.1 HSL_FL % ACTIVITY All [1]: 51%

Cc1c(Cc2ccccc2)c(=O)oc2cc(OC(=O)N3CCOCC3)ccc12 [Example 92]
Test 3180.2 HSL % ACTIVITY All [2]: 62%

N-Methyl-N-phenethyl-5-ethyl-3-(4-chlorophenyl)-[1,2,4]triazole-1-carboxamide [Example 119]
Test 3180.2 HSL % ACTIVITY All [2]: 10%
